Measured values as given in the supplement of paper PMC10307832.

How the values were obtained:
Experiment in all cases: relative viability (nuclei count vs DMSO), 5 days (fraction); higher = more cells survive
[1] = compound: Nc1ncn([C@H]2C[C@H](O)[C@@H](CO)O2)c(=O)n1 [Decitabine]
Outline: (§1)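 Viability was defined as treated-well nuclei divided by vehicle-well nuclei, with the median taken over replicate plates. Cells from lung cancer lines sat overnight at 37 °C in 1536-well plates, received five √10-spaced library-drug doses by pinning on vehicle-anchored plates, and grew 5 days without medium change before one-step fixation, permeabilisation and Hoechst staining, 4× imaging and MetaXpress nuclear counts. Only plates with control CV under 25% and at least one doubling were kept.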

[2] = compound: O=C(C[C@H]1NCCC[C@@H]1O)Cn1cnc2cc(Br)c(Cl)cc2c1=O (racemic) [Halofuginone]
Outline: as §1

[3] = compound: COc1cc2c(Oc3ccc4[nH]c(C)cc4c3F)ncnc2cc1OCCCN1CCCC1 [Cediranib]
Outline: as §1

Cell Line	relative viability ([1]; 0.1265 µM)	relative viability ([1]; 0.4 µM)	relative viability ([1]; 1.265 µM)	relative viability ([1]; 2 µM, anchor plate)	relative viability ([1]; 4 µM)	relative viability ([2]; 0.001 µM)	relative viability ([2]; 0.003162 µM)	relative viability ([2]; 0.01 µM)	relative viability ([2]; 0.03162 µM)	relative viability ([2]; 0.1 µM)	relative viability ([3]; 0.04 µM)	relative viability ([3]; 0.1265 µM)	relative viability ([3]; 0.4 µM)	relative viability ([3]; 1.265 µM)	relative viability ([3]; 4 µM)	relative viability ([1]; 0.04 µM)
PC-3 [JPC-3]	0.85	0.537	0.611	0.847	0.627	1.06	1.04	1.01	1.09	0.982	0.921	0.959	0.933	1.09	0.973	–
HCC-44	0.985	0.348	0.545	0.938	0.639	0.988	0.98	0.972	0.953	0.8	0.996	–	0.945	0.959	0.983	0.924
NCI-H2405	0.903	0.758	0.596	0.745	0.49	1.16	1.03	1.01	0.96	0.876	0.999	0.914	0.994	1	1.02	0.898
LXF-289	0.651	0.441	0.345	0.387	0.312	0.98	1.02	0.994	1.01	1	1.06	0.778	0.928	1.01	1.03	0.778
LOU-NH91	0.928	0.886	0.83	0.808	0.848	1.03	0.929	0.98	1.06	0.912	0.967	1.15	0.932	0.878	0.958	0.781
A549	0.724	0.554	0.174	0.265	0.159	1.03	0.972	0.975	0.766	0.385	0.929	0.953	0.889	0.897	0.996	0.858
H3255	0.857	0.702	0.668	0.657	0.666	1.07	0.99	0.88	0.95	0.992	1.1	0.859	0.964	0.938	0.986	0.636
NCI-H1395	0.671	0.729	0.508	0.744	0.528	0.984	0.872	0.809	0.868	0.768	0.885	0.832	0.887	0.884	0.993	0.627
LC-2-ad	0.839	0.679	0.411	0.786	0.501	1.11	0.944	0.932	0.978	0.833	1.04	0.871	0.953	0.955	0.785	0.832
NCI-H838	0.59	0.434	0.461	0.466	0.314	1	1	0.945	0.765	0.409	1.02	0.965	0.916	0.827	1.06	0.687
Calu-6	0.644	0.383	0.301	–	0.272	1.08	1.04	1	0.633	0.279	0.982	1.03	0.977	1.04	1.03	0.785
NCI-H1648	0.733	0.474	0.387	0.509	0.366	1.12	0.809	1.06	0.951	1.13	0.627	0.423	0.71	0.773	0.791	0.82
LCLC-97TM1	0.538	0.209	0.134	0.238	0.15	0.913	0.938	1.01	0.995	0.679	1.04	–	0.941	0.949	0.984	0.425
HCC-15	0.917	0.419	0.483	0.661	0.508	0.991	1.14	0.981	0.979	0.842	1.03	–	0.948	1.08	1	0.915
CAL-12T	0.843	0.502	0.548	–	0.461	1.03	1.02	1.03	1.12	0.85	1	0.974	0.937	1.01	1.01	0.726
NCI-H727	0.658	0.662	0.579	0.903	0.553	1.01	0.88	0.788	0.848	0.65	0.631	0.824	0.906	0.935	0.989	0.733
ABC-1	0.97	0.758	0.733	1.12	0.67	0.939	1.02	0.881	0.934	0.77	0.995	1.11	0.851	0.759	0.92	0.804
NCI-H2023	0.516	0.249	0.206	0.227	0.172	0.98	1.05	0.931	0.516	0.082	1	1.02	0.902	0.878	1.19	0.678
NCI-H2342	1.05	0.97	0.671	0.745	0.645	1.07	0.956	0.961	0.963	0.95	1	1.1	0.899	0.746	1.07	0.977
SW 1573	0.944	0.732	0.486	0.504	0.379	1.08	1.06	0.908	0.692	0.278	1.01	0.974	0.969	0.828	0.927	0.815
NCI-H1993	0.844	0.929	0.755	0.596	0.757	1.23	0.978	0.893	1.11	0.749	0.73	0.878	0.857	0.726	0.87	0.863
NCI-H661	0.944	0.764	0.59	0.565	0.557	1.01	0.962	0.956	0.907	0.85	0.988	0.98	0.974	0.957	1.1	0.928

Cell Line	relative viability ([1]; 0.1265 µM)	relative viability ([1]; 0.4 µM)	relative viability ([1]; 1.265 µM)	relative viability ([1]; 2 µM, anchor plate)	relative viability ([1]; 4 µM)	relative viability ([2]; 0.001 µM)	relative viability ([2]; 0.003162 µM)	relative viability ([2]; 0.01 µM)	relative viability ([2]; 0.03162 µM)	relative viability ([2]; 0.1 µM)	relative viability ([3]; 0.04 µM)	relative viability ([3]; 0.1265 µM)	relative viability ([3]; 0.4 µM)	relative viability ([3]; 1.265 µM)	relative viability ([3]; 4 µM)	relative viability ([1]; 0.04 µM)
NCI-H520	0.811	0.508	0.472	0.517	0.374	1.01	1.07	1.04	0.91	0.635	1.12	0.747	0.917	0.804	0.865	0.847
ChaGo-K-1	0.816	0.537	0.482	0.537	0.477	0.995	0.968	0.916	0.967	1.03	0.965	0.733	0.952	1.1	0.997	0.933
NCI-H2085	0.768	0.65	0.528	0.559	0.528	1.03	1.07	0.989	1.04	0.935	1	1.08	0.946	0.99	0.97	0.812
NCI-H1651	1.01	0.961	0.799	0.64	0.767	0.983	1.14	0.966	0.934	0.735	0.977	0.963	0.96	0.951	0.999	0.954
RERF-LC-KJ	0.967	0.561	0.688	0.728	0.642	1.08	1.07	0.951	0.966	0.912	1.01	0.862	0.946	0.963	1.05	0.951
NCI-H1755	0.949	0.848	0.598	0.717	0.515	1.02	1.04	1.01	1.01	0.978	1.1	0.861	0.954	1.05	1.01	0.95
SK-MES-1	0.707	0.461	0.339	0.378	0.305	1.04	1.05	0.978	0.827	0.271	1.06	1.12	0.961	0.967	1.09	0.827
NCI-H2126	0.958	0.709	0.633	0.573	0.582	1.02	0.992	0.949	0.968	0.88	0.971	0.987	0.955	0.809	0.957	0.906
EPLC-272H	0.749	–	0.46	0.386	0.407	1.07	1.02	0.921	1.01	0.889	0.77	–	0.915	0.792	0.975	0.6
NCI-H1975	0.526	0.372	0.352	0.394	0.358	1.05	0.943	0.953	0.692	0.442	0.974	0.983	0.914	0.956	0.939	0.594
NCI-H3122	0.964	0.624	0.473	0.471	0.647	1	0.984	0.968	0.941	0.95	1.09	0.765	0.977	1	1.01	0.964
COR-L 105	0.798	0.711	0.648	0.696	0.577	1.07	0.955	0.874	0.824	0.711	0.862	0.911	0.944	0.889	0.923	0.666
BEN	0.853	0.663	0.587	0.771	0.505	0.993	1.05	1.05	1.03	0.65	1.07	0.643	0.903	0.758	0.931	0.848
NCI-H1915	0.421	0.329	0.26	0.265	0.292	0.957	1.13	0.959	0.998	0.943	0.969	0.832	0.96	1.04	0.996	0.502
NCI-H650	0.596	0.363	0.325	0.31	0.332	1.04	1.01	0.956	0.881	0.719	0.892	0.787	0.961	0.87	0.996	0.717
NCI-H1703	0.669	0.288	0.332	–	0.246	0.931	0.994	0.886	0.668	0.519	0.819	0.677	0.471	0.363	0.393	0.772
NCI-H1650	0.657	0.507	0.346	0.422	0.338	1	1.01	0.883	0.811	0.19	1	0.962	0.833	0.8	0.822	0.599
NCI-H2009	0.706	0.504	0.349	0.387	0.343	1.04	1.18	0.948	0.883	0.597	1.01	0.958	0.984	0.988	1.1	0.837
COR-L23	0.629	0.484	0.379	0.441	0.308	1.14	1.02	0.982	0.931	0.268	1.06	0.957	0.914	1	1.27	0.677
NCI-H460	0.938	0.766	0.38	0.495	0.265	1.04	1.03	0.973	0.975	0.571	1.02	0.98	0.957	0.984	1.05	0.929
NCI-H522	0.938	0.624	0.627	0.686	0.611	1.06	0.924	1.04	1.01	0.769	1.04	0.745	0.947	0.961	1.02	0.949
